Measurements: EP1935986B1, “Luminogenic and fluorogenic compounds and methods to detect molecules or conditions” (priority 2005, dated 2006)

Assays:
QuantiLum Luciferase [1] = biological target: T1, QuantiLum Luciferase (Photinus pyralis, UniProt P08659); test: Firefly luciferase reaction with luciferin derivatives: light emission over time (with or without ATP, EDTA, coenzyme A, DTT); format: biochemical; parameters: unit not given here
T1 construct: purchased Promega Corporation E170
Experimental: Gel and HPLC stop solution. Solid EDTA (free acid) was placed in a beaker with water and the pH of the solution adjusted to pH 7.0. The solution was then adjusted in volume to produce a solution 400 mM in EDTA.
Enzyme stop solution. A solution was prepared containing 20 mM Bis Tris, pH 6.5, 2 mM EDTA and 1mg/ml bovine serum albumin.
Reaction buffer (2X). A solution was made containing 100 mM HEPES buffer, pH 8.0; 10 mM MgCl2.
DTT stock. Solid DTT (dithiothreatol) was dissolved in water and then adjusted to pH 8.0 with solid sodium hydroxide. The solution was then adjusted in volume to produce a solution 1 M in DTT.
(§1) After producing the solutions in Table 37, the volume of all reactions was adjusted to 990 µl with water. […] While the light reading was being taken, a 10 µl sample of the reaction was diluted to 500 µl with enzyme stop solution (cooled on ice to 4°C) mixed and placed on ice and a second sample of 90 µl of reaction was added to 10 µl of Gel/HPLC stop and the tube placed at -20°C. A timer was started with the start of the first reaction and the start times of the remaining reactions was noted. At 15, 30, 45 and 60 minutes, each reaction was sampled as above and the light produced in the luminometer tubes was measured. At 7 and 22 minutes, the light produced in the luminometer tubes was read, but the reactions were not sampled.
as §1, with “40,” for “37,”

QuantiLum Luciferase [2] = biological target: T1, QuantiLum Luciferase; test: Residual active luciferase after reaction with luciferin derivatives (Steady Glo); format: biochemical, firefly; parameters: unit not given here
Experimental: as §1
After all samples were taken, 50 µl of the sample diluted into enzyme stop solution was mixed with 50 µl of Steady Glo Luciferase Reagent (Promega) and the light produced measured after incubating at room temperature for 10 minutes. This measured the active luciferase in the initial reaction.
as §1, with “40,” for “37,”

T1 sequence (P08659 whole entry): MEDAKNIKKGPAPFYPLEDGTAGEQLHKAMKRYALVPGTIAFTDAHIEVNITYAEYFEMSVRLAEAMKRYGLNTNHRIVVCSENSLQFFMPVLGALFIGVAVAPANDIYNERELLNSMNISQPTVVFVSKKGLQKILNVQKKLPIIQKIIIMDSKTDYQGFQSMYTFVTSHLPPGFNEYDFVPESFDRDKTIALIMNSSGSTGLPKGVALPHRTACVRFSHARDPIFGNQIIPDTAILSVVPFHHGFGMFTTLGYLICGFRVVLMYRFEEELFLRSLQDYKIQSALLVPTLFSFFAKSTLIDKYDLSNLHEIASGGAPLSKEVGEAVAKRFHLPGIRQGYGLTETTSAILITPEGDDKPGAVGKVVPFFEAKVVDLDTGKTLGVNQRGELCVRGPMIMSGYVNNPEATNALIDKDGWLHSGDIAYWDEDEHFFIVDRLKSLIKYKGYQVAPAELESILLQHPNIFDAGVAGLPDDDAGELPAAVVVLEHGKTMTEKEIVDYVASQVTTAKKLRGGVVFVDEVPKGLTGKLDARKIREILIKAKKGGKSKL

## O=C(O)[C@H]1CSC(c2nc3ccc(OCc4ccccc4)cc3s2)=N1 [Luc'in BE]
QuantiLum Luciferase [1]; +Co A, 7 min
  Light reading at time: 11.92
QuantiLum Luciferase [1]; +Co A, 22 min
  Light reading at time: 9.941
QuantiLum Luciferase [1]; +CoA, 0 min
  Light reading at time: 139.5
QuantiLum Luciferase [1]; +CoA, 15 min
  Light reading at time: 10.99
QuantiLum Luciferase [1]; +CoA, 30 min
  Light reading at time: 7.379
QuantiLum Luciferase [1]; +CoA, 45 min
  Light reading at time: 7.284
QuantiLum Luciferase [1]; +CoA, 60 min
  Light reading at time: 6.433
QuantiLum Luciferase [1]; +DTT, 0 min
  Light reading at time: 948
QuantiLum Luciferase [1]; +DTT, 7 min
  Light reading at time: 532.8
QuantiLum Luciferase [1]; +DTT, 15 min
  Light reading at time: 417
QuantiLum Luciferase [1]; +DTT, 22 min
  Light reading at time: 369.5
QuantiLum Luciferase [1]; +DTT, 30 min
  Light reading at time: 331.6
QuantiLum Luciferase [1]; +DTT, 45 min
  Light reading at time: 273.5
QuantiLum Luciferase [1]; +DTT, 60 min
  Light reading at time: 226.9
QuantiLum Luciferase [1]; No addition, 0 min
  Light reading at time: 135.2
QuantiLum Luciferase [1]; No addition, 7 min
  Light reading at time: 22.61
QuantiLum Luciferase [1]; No addition, 15 min
  Light reading at time: 12.79
QuantiLum Luciferase [1]; No addition, 22 min
  Light reading at time: 9.256
QuantiLum Luciferase [1]; No addition, 30 min
  Light reading at time: 6.928
QuantiLum Luciferase [1]; No addition, 45 min
  Light reading at time: 4.879
QuantiLum Luciferase [1]; No addition, 60 min
  Light reading at time: 3.311
QuantiLum Luciferase [1]; w/o ATP, 0 min
  Light reading at time: 0.015
QuantiLum Luciferase [1]; w/o ATP, 7 min
  Light reading at time: 0
QuantiLum Luciferase [1]; w/o ATP, 15 min
  Light reading at time: 0.008
QuantiLum Luciferase [1]; w/o ATP, 22 min
  Light reading at time: 0.005
QuantiLum Luciferase [1]; w/o ATP, 30 min
  Light reading at time: 0
QuantiLum Luciferase [1]; w/o ATP, 45 min
  Light reading at time: 0
QuantiLum Luciferase [1]; w/o ATP, 60 min
  Light reading at time: 0.01
QuantiLum Luciferase [2]; +CoA, 0 min
  Light reading from residual active enzyme at time: 186.7
QuantiLum Luciferase [2]; +CoA, 15 min
  Light reading from residual active enzyme at time: 179.6
QuantiLum Luciferase [2]; +CoA, 30 min
  Light reading from residual active enzyme at time: 179.4
QuantiLum Luciferase [2]; +CoA, 45 min
  Light reading from residual active enzyme at time: 157.9
QuantiLum Luciferase [2]; +CoA, 60 min
  Light reading from residual active enzyme at time: 161.8
QuantiLum Luciferase [2]; No addition, 0 min
  Light reading from residual active enzyme at time: 129.7
QuantiLum Luciferase [2]; No addition, 15 min
  Light reading from residual active enzyme at time: 69.9
QuantiLum Luciferase [2]; No addition, 30 min
  Light reading from residual active enzyme at time: 47.31
QuantiLum Luciferase [2]; No addition, 45 min
  Light reading from residual active enzyme at time: 37.94
QuantiLum Luciferase [2]; No addition, 60 min
  Light reading from residual active enzyme at time: 29.08
QuantiLum Luciferase [2]; w/o ATP, 0 min
  Light reading from residual active enzyme at time: 168.3
QuantiLum Luciferase [2]; w/o ATP, 15 min
  Light reading from residual active enzyme at time: 174.1
QuantiLum Luciferase [2]; w/o ATP, 30 min
  Light reading from residual active enzyme at time: 171.7
QuantiLum Luciferase [2]; w/o ATP, 45 min
  Light reading from residual active enzyme at time: 172.9
QuantiLum Luciferase [2]; w/o ATP, 60 min
  Light reading from residual active enzyme at time: 164
